Measured values as given in ChEMBL document CHEMBL1147286, “7-O-methylhorminone and other cytotoxic diterpene quinones from Lepechinia bullata” (1989).
≈ marks a conversion by molar mass, not a printed value.

Assays:
KB = assay: Cytotoxicity against human KB cells; format: functional; details: read-out: ED50 (the source's name)
P388 = assay: Cytotoxicity against mouse P388 cells; format: functional; details: read-out: ED50 (the source's name)

## CC(C)C1=C(O)C(=O)C2=C(C=C[C@H]3C(C)(C)CCC[C@]23C)C1=O
KB
  EC50: 5.7 µg/mL (≈ 18.1 µM)
P388
  EC50: 1.6 µg/mL (≈ 5.09 µM)

## CO[C@@H]1C[C@H]2C(C)(C)CCC[C@]2(C)C2=C1C(=O)C(C(C)C)=C(O)C2=O
KB
  EC50: 13 µg/mL (≈ 37.5 µM)
P388
  EC50: 4.8 µg/mL (≈ 13.9 µM)

## CC(C)C1=C(O)C(=O)C2=C(C1=O)[C@H](O)C[C@H]1C(C)(C)CCC[C@]21C [HORMINONE]
KB
  EC50: 20.2 µg/mL (≈ 60.8 µM)
P388
  EC50: 4.6 µg/mL (≈ 13.8 µM)
